{"source": "patent US20210369675A1", "about": "“ANTIMICROBIAL DRUG METHODS OF USE & THERAPEUTIC COMPOSITIONS” (priority 2017, published 2021)", "key": {"[1]": {"test_system": "Burkholderia pseudomallei", "format": "cell-based"}, "[2]": {"details": "cited from earlier work; for elimination half-life (T1/2): after a single administration of rac-ornidazole in a formulation; for AUC0-∞: after a single administration"}, "[3]": {"details": "current 300 mg capsule formulation, per product label; cited from earlier work"}, "[4]": {"test_system": "Burkholderia pseudomallei", "details": "cited from earlier work"}, "Brucella melitensis": {"test_system": "Brucella melitensis", "details": "cited from earlier work"}}, "note": "Entries after “also recorded” stand apart in the source; their conditions may differ.", "data": [{"compound": "Cc1ncc([N+](=O)[O-])n1CC(O)CCl", "note": "(racemic) [(rac)-ornidazole, 1-chloro-3-(2-methyl-5-nitro-1H-imidazol-1-yl)propan-2-ol]", "values": [{"measurement": "inhibition of B. pseudomallei grown under anaerobic conditions", "setting": "[1]", "value": "inhibition; also recorded: effectively inhibited"}]}, {"compound": "Cc1ncc([N+](=O)[O-])n1C[C@@H](O)CCl", "note": "[(R)-ornidazole]", "values": [{"measurement": "elimination half-life (T1/2)", "setting": "[2]", "value": "similar"}, {"measurement": "AUC0-∞", "setting": "[2]", "value": "similar"}]}, {"compound": "Cc1ncc([N+](=O)[O-])n1C[C@H](O)CCl", "note": "[(S)-ornidazole]", "values": [{"measurement": "elimination half-life (T1/2)", "setting": "[2]", "value": "similar"}, {"measurement": "AUC0-∞", "setting": "[2]", "value": "similar"}]}, {"compound": "C[C@H](CCC(=O)O)[C@H]1CC[C@H]2[C@@H]3[C@@H](O)C[C@@H]4C[C@H](O)CC[C@]4(C)[C@H]3CC[C@]12C", "note": "[Ursodiol, ursodeoxycholic acid]", "values": [{"measurement": "fraction of drug absorbed in the small intestines (small bowel)", "setting": "[3]", "value": 90, "unit": "%"}, {"measurement": "fraction of drug reaching the colon", "setting": "[3]", "value": "less than 10%"}]}, {"compound": "CC(C)(O/N=C(\\C(=O)N[C@@H]1C(=O)N2C(C(=O)[O-])=C(C[n+]3ccccc3)CS[C@H]12)c1csc(N)n1)C(=O)O", "note": "[ceftazidime]", "values": [{"measurement": "effectiveness of conventional antibiotics against B. pseudomallei", "setting": "[4]", "value": "not effective"}, {"measurement": "effectiveness of conventional antibiotics against B. melitensis", "setting": "Brucella melitensis", "value": "not effective"}]}, {"compound": "O=C(N[C@H](CO)[C@H](O)c1ccc([N+](=O)[O-])cc1)C(Cl)Cl", "note": "[chloramphenicol]", "values": [{"measurement": "effectiveness of conventional antibiotics against B. pseudomallei", "setting": "[4]", "value": "not effective"}, {"measurement": "effectiveness of conventional antibiotics against B. melitensis", "setting": "Brucella melitensis", "value": "not effective"}]}, {"compound": "trimethoprim-sulfamethoxazole", "values": [{"measurement": "effectiveness of conventional antibiotics against B. pseudomallei", "setting": "[4]", "value": "not effective"}, {"measurement": "effectiveness of conventional antibiotics against B. melitensis", "setting": "Brucella melitensis", "value": "not effective"}]}]}
